Laboratory results as given in patent publication US12594271B2, “Combination therapy for cancer” (Health Research, Inc., priority 2019, dated 2026).

Tested on: MDSCs
Assay: MDSC suppression assay: inhibition of T cell proliferation by in vitro generated MDSCs
Assay type: cell-based, mouse
Conditions: ATRA 10 μM at start of culture, side-by-side with BRQ 1 μM
Method: FIG. 2. […] (A) MDSCs were produced in vitro from mouse bone marrow cells using GM-CSF and G-CSF±BRQ (1 μM) or ATRA (10 μM) at the start of the 4-day culture. Cells tested for their ability to inhibit T cell proliferation (1:1 ratio), as in FIG. 5. Fresh BM=Uncultured bone marrow cells. (B) Similar to A, except that uridine (200 μM) was added to rescue the effect of BRQ. (C) Expression of IRF8 (upper) or SLFN4 (lower) was analyzed by qRT-PCR in Lin^− BM cells cultured as in A for 2 days. Data normalized to the vehicle.
In Vitro Development of MDSCs. Unfractionated mouse bone marrow cells were cultured in dishes with recombinant mouse G-CSF and recombinant mouse GM-CSF (40 ng/ml of each cytokine) for 96 hours to produce MDSCs, as described (Marigo et al. Immunity 32:790-802, 2010). After culture, cells were collected and analyzed by flow cytometry for the indicated cell surface markers. Uncultured or fresh bone marrow (BM) cells served as a negative control.
Cultured Cells Develop Potent Immunosuppressive Capacity. Using the methods described for FIG. 4, experiments were then performed to determine whether the cells generated from this BM culture system functionally behaved as MDSCs, based on their ability to inhibit T cell proliferation in vitro. To that end, fresh BM (i.e., no in vitro culture) or cultured BM cells (i.e., MDSCs at two different MDSC-to-T cell ratios of 1:1 or 1:2) were co-mixed in 96-well plates with CellTrace Violet (CTV)—stained syngeneic naïve splenocytes as a source of T cells and stimulated with or without soluble agonistic anti-CD3 monoclonal antibody (mAb) (1 μg/ml) for 72 hours. After co-culture, CTV dye dilution in the gated CD4^+ or CD8^+ T cell fractions within the splenocyte populations was analyzed by flow cytometry to determine the extent of proliferation based on dye dilution. In FIG. 5, top panels show CTV dye dilution, as determined by flow cytometry and depicted as a histogram; bottom panels indicate the percentage of proliferation, based on quantification of the histogram data. […]

## CC1=C(/C=C/C(C)=C/C=C/C(C)=C/C(=O)O)C(C)(C)CCC1 [ATRA, all-trans retinoic acid]
  ability of in vitro generated MDSCs to inhibit CD4+ or CD8+ T cell proliferation: BRQ is more effective than ATRA
